Assay results as given in patent US6716833B2, “Acetylenic α-amino acid-based sulfonamide hydroxamic acid tace inhibitors” (priority 1999, dated 2004).
Where a name gives a salt, the structure may show the parent alone. Read-outs that look alike come from different tables or passages of the source.

Experiments:
Type in all cases: biochemical
[1] = target: TNF-α converting enzyme (TACE) (Homo sapiens, UniProt P78536); assay: TACE inhibition (fluorescent peptidyl substrate); conditions: read-out: TACE IC50
Chain of TNF-α converting enzyme (TACE) (P78536 215-824, species assumed): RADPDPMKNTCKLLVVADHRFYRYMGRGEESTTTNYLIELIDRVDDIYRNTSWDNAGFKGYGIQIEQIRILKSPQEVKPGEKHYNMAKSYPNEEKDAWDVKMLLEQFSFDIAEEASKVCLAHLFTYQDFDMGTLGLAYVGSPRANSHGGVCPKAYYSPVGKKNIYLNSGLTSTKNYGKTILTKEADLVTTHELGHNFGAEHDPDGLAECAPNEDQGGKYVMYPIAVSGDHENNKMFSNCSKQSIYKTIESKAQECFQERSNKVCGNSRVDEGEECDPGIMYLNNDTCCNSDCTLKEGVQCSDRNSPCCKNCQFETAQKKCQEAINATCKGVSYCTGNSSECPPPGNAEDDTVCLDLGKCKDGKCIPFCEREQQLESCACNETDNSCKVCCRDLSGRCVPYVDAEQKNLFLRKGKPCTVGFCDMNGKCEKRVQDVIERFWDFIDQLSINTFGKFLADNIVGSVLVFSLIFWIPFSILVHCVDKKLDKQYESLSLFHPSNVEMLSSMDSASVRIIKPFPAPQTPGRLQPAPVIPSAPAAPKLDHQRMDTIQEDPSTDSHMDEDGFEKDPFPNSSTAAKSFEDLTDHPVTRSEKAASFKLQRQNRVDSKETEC

[2] = target: MMP-9 (Homo sapiens, UniProt P14780); assay: MMP-9 inhibition (thiopeptide or fluorescent peptide substrate); conditions: read-out: MMP-9 IC50
Chain of MMP-9 (P14780 94-707): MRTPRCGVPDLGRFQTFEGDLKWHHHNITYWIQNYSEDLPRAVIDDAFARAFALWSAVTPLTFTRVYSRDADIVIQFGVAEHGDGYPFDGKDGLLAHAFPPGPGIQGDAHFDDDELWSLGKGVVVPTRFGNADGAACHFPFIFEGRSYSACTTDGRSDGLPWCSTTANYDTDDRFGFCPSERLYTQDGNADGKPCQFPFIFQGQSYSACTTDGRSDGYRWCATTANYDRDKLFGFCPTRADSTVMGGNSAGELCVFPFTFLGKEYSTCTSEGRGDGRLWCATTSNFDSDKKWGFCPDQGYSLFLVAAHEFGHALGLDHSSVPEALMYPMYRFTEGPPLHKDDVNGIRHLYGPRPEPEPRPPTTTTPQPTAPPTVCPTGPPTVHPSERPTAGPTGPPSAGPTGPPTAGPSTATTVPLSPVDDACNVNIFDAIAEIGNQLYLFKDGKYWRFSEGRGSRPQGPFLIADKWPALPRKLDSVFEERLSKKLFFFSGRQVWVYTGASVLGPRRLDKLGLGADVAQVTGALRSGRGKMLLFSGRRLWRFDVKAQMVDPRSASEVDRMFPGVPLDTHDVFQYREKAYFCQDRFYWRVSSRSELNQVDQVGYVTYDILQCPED
Method: The enzyme activity is measured by the rate of the color increase. The thiopeptide substrate is made up fresh as a 20 mM stock in 100% DMSO and the DTNB is dissolved in 100% DMSO as a 100 mM stock and stored in the dark at room temperature. Both the substrate and DTNB are diluted together to 1 mM with substrate buffer (50 mM HEPES pH 7.5, 5 mM CaCl2) before use. The stock of enzyme is diluted with buffer (50 mM HEPES, pH 7.5, 5 mM CaCl2, 0.02% Brij) to the desired final concentration.
Alternatively, a fluorescent peptide substrate is used. In this test procedure, the peptide substrate contains a fluorescent group and a quenching group. Upon cleavage of the substrate by an MMP, the fluorescence that is generated is quantitated on the fluorescence plate reader. The assay is run in HCBC assay buffer (50 mM HEPES, pH 7.0, 5 mM Ca^+2, 0.02% Brij, 0.5% Cysteine), with human recombinant MMP-1, MMP-9, or MMP-13. […] For the assay, substrate and enzymes are diluted in HCBC buffer to the desired concentrations. Compounds are added to the 96 well plate containing enzyme and the reaction is started by the addition of substrate.
For either the thiopeptide or fluorescent peptide test procedures, the slope of the line is calculated and represents the reaction rate. The linearity of the reaction rate is confirmed (r^2>0.85). The mean (x±sem) of the control rate is calculated and compared for statistical significance (p<0.05) with drug-treated rates using Dunnett's multiple comparison test.

[3] = target: T1, MMP-1 (Homo sapiens, UniProt P03956); assay: MMP-1 inhibition (thiopeptide or fluorescent peptide substrate); conditions: read-out: MMP-1 IC50
T1 sequence (P03956 100-469): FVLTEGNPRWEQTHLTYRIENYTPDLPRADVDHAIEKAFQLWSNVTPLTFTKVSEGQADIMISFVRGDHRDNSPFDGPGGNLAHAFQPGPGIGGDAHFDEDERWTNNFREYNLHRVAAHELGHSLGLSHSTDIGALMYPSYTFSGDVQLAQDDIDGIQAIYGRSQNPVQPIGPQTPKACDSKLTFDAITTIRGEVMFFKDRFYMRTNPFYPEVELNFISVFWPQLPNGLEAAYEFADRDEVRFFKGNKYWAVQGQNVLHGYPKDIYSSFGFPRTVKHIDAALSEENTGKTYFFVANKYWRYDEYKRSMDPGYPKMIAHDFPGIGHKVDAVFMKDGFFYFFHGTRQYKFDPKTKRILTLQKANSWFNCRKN

[4] = target: MMP-13 (Homo sapiens, UniProt P45452); assay: MMP-13 inhibition (thiopeptide or fluorescent peptide substrate); conditions: read-out: MMP-13 IC50

SMILES | IC50 [1] | IC50 [2] | IC50 [3] | IC50 [4] | also measured
CC#CCOc1ccc(S(=O)(=O)N2CC[S+]([O-])C(C)(C)C2C(=O)NO)cc1 (single isomer, unassigned) [Example 255] | – | – | – | – | IC50 ([1]; Table 9): 24 nM; IC50 ([2]; Table 9): 29 nM; IC50 ([3]; Table 9): 46 nM; IC50 ([4]; Table 9): 8.7 nM
CC#CCOc1ccc(S(=O)(=O)N2CC[S+]([O-])C(C)(C)C2C(=O)NO)cc1 (single isomer, unassigned) [Example 256] | – | – | – | – | IC50 ([1]; Table 9): 25 nM; IC50 ([2]; Table 9): 145 nM; IC50 ([3]; Table 9): 43 nM; IC50 ([4]; Table 9): 48 nM
CC#CCOc1ccc(S(=O)(=O)N(Cc2cccnc2)C(C)C(=O)NO)cc1 (stereo not drawn) [Example 33, 2-[(4-but-2-ynyloxy-Benzenesulfonyl)-pyridin-3-ylmethyl-amino]-N-hydroxy-propionamide Hydrochloride] | 5 nM | 65 nM | 239 nM | 26 nM | –
CCCCC#CCOc1ccc(S(=O)(=O)N2CCSC(C)(C)C2C(=O)NO)cc1 (stereo not drawn) [Example 40, 4-(4-hept-2-ynyloxy-Benzenesulfonyl)-2,2-dimethyl-thiomorpholine-3-carboxylic Acid Hydroxyamide] | – | – | – | – | IC50 ([1]; Table 9): 23 nM; IC50 ([2]; Table 9): 7.8 nM; IC50 ([3]; Table 9): 29 nM; IC50 ([4]; Table 9): 6.6 nM
CC#CCOc1ccc(S(=O)(=O)N2Cc3ccccc3CC2C(=O)NO)cc1 (stereo not drawn) [Example 41, 2-(4-but-2-ynyloxy-Benzenesulfonyl)-1,2,3,4-tetrahydro-isoquinoline-3-carboxylic Acid Hydroxyamide] | 7 nM | 24 nM | 121 nM | 10 nM | –
CC#CCOc1ccc(S(=O)(=O)N2CCCN(C(=O)c3ccccc3)CC2C(=O)NO)cc1 (stereo not drawn) [Example 49, 4-Benzoyl-1-(4-but-2-ynyloxy-benzenesulfonyl)-[1,4]diazepane-2-carboxylic Acid Hydroxyamide] | 17 nM | 75 nM | 362 nM | 65 nM | –
CC#CCOc1ccc(S(=O)(=O)N2CCN(C)CC2C(=O)NO)cc1 (stereo not drawn) [Example 56, 1-(4-but-2-ynyloxy-Benzenesulfonyl)-4-methyl-piperazine-2-carboxylic Acid Hydroxyamide Hydrochloride] | 41 nM | 667 nM | 3340 nM | 158 nM | –
CC#CCOc1ccc(S(=O)(=O)N2CCN(C(=O)OC(C)(C)C)CC2C(=O)NO)cc1 (stereo not drawn) [Example 58, 4-(4-but-2-ynyloxy-Benzenesulfonyl)-3-hydroxycarbamoyl-piperazine-1-carboxylic Acid tert-Butyl Ester] | 21 nM | 24 nM | 456 nM | 17 nM | –
CC#CCOc1ccc(S(=O)(=O)N(CC)C(C(=O)NO)C(C)C)cc1 (stereo not drawn) [Example 108, 2-[(4-but-2-ynyloxy-Benzenesulfonyl)-ethyl-amino]-N-hydroxy-3-methyl-butyramide] | 33 nM | 119 nM | 92 nM | 67 nM | –
C#CCN(C(C(=O)NO)C(C)C)S(=O)(=O)c1ccc(OCC#CC)cc1 (stereo not drawn) [Example 109, 2-[{[4-(2-Butynyloxy)phenyl]sulfonyl}(2-propynyl)amino]-N-hydroxy-3-methylbutanamide] | 55 nM | 233 nM | 210 nM | 53 nM | –
CC#CCOc1ccc(S(=O)(=O)N(CCC)C(C(=O)NO)C(C)C)cc1 (stereo not drawn) [Example 110, 2[(4-but-2-ynyloxy-Benzenesulfonyl)-propyl-amino]-N-hydroxy-3-methyl-butyramide] | 66 nM | 477 nM | 196 nM | 153 nM | –
CC#CCOc1ccc(S(=O)(=O)N(CCCc2ccccc2)C(C(=O)NO)C(C)C)cc1 (stereo not drawn) [Example 111, 2-[(4-but-2-ynyloxy-Benzenesulfonyl)-(3-phenyl-propyl)-amino]-N-hydroxy-3-methyl-butyramide] | 481 nM | 1420 nM | 308 nM | 303 nM | –
CC#CCOc1ccc(S(=O)(=O)N(CC2CC2)C(C(=O)NO)C(C)C)cc1 (stereo not drawn) [Example 112, 2-[(4-but-2-ynyloxy-Benzenesulfonyl)-cyclopropylmethyl-amino]-N-hydroxy-3-methyl-butyramide] | 57 nM | 397 nM | 189 nM | 142 nM | –
CC#CCOc1ccc(S(=O)(=O)N(CC(C)C)C(C(=O)NO)C(C)C)cc1 (stereo not drawn) [Example 113, 2-[(4-but-2-ynyloxy-Benzenesulfonyl)-isobutyl-amino]-N-hydroxy-3-methyl-butyramide] | 107 nM | 918 nM | 299 nM | 309 nM | –
CC#CCOc1ccc(S(=O)(=O)N(Cc2cccnc2)C(C(=O)NO)C(C)C)cc1 (stereo not drawn) [Example 114, 2-[(4-but-2-ynyloxy-Benzenesulfonyl)-pyridin-3-ylmethyl-amino]-N-hydroxy-3-methyl-butyramide] | 93 nM | 193 nM | 236 nM | 94 nM | –
CC#CCOc1ccc(S(=O)(=O)N(C)C(C(=O)NO)C2CCCCC2)cc1 (stereo not drawn) [Example 115, 2-[(4-but-2-ynyloxy-Benzenesulfonyl)-methyl-amino]-2-cyclohexyl-N-hydroxy-acetamide] | 31 nM | 14 nM | 94 nM | 6.6 nM | –
CC#CCOc1ccc(S(=O)(=O)N(Cc2cccnc2)[C@@H](C(=O)NO)C2CCCCC2)cc1 [Example 116, 2-[(4-but-2-ynyloxy-Benzenesulfonyl)-pyridin-3-ylmethyl-amino]-2-cyclohexyl-N-hydroxy-acetamide] | 204 nM | 336 nM | 218 nM | 53 nM | –
CC#CCOc1ccc(S(=O)(=O)N(CCCN(CC)CC)C(C(=O)NO)C(C)C)cc1 (stereo not drawn) [Example 118, 2-{{[4-(2-Butynyloxy)phenyl]sulfonyl}[3-(diethylamino)propyl]amino}-N-hydroxy-3-methylbutanamide] | 154 nM | 86 nM | 121 nM | 45 nM | –
CC#CCOc1ccc(S(=O)(=O)N(CCCN2CCOCC2)C(C(=O)NO)C(C)C)cc1 (stereo not drawn) [Example 119, 2-{{[4-(2-Butynyloxy)phenyl]sulfonyl}[3-(4-morpholinyl)propyl]amino}-N-hydroxy-3-methylbutanamide] | 124 nM | 94 nM | 129 nM | 46 nM | –
CC#CCOc1ccc(S(=O)(=O)N(CCCN2CCN(C)CC2)C(C(=O)NO)C(C)C)cc1 (stereo not drawn) [Example 120, 2-{{[4-(2-Butynyloxy)phenyl]sulfonyl}[3-(4-methyl-1-piperazinyl)propyl]amino}-N-hydroxy-3-methylbutanamide Hydrochloride] | 149 nM | 211 nM | 111 nM | 161 nM | –
CC#CCOc1ccc(S(=O)(=O)N(CCCCN(CC)CC)C(C(=O)NO)C(C)C)cc1 (stereo not drawn) [Example 121, 2-{{[4-(2-Butynyloxy)phenyl]sulfonyl}[4-(diethylamino)butyl]amino}-N-hydroxy-3-methylbutanamide] | 177 nM | 256 nM | 120 nM | 114 nM | –
CC#CCOc1ccc(S(=O)(=O)N2CCN(C(=O)N(CC)CC)CC2C(=O)NO)cc1 (stereo not drawn) [Example 216, 4-(4-but-2-ynyloxy-Benzenesulfonyl)-piperazine-1,3-dicarboxylic Acid 1-Diethylamide 3-Hydroxyamide] | 28 nM | 221 nM | – | 97 nM | –
CC#CCOc1ccc(S(=O)(=O)N2CCN(C(=O)OCc3ccccc3)CC2C(=O)NO)cc1 (stereo not drawn) [Example 219, Benzyl 4-{[4-(2-Butynyloxy)phenyl]sulfonyl}-3-[(hydroxyamino)carbonyl]-1-piperazinecarboxylate] | – | 45 nM | 176 nM | 10 nM | –
CC#CCOc1ccc(S(=O)(=O)N2CCN(C(=O)c3cccs3)CC2C(=O)NO)cc1 (stereo not drawn) [Example 226, 1-(4-but-2-ynyloxy-Benzenesulfonyl)-4-(thiophene-2-carbonyl)-piperazine-2-carboxylic Acid Hydroxyamide] | 12 nM | 251 nM | – | 119 nM | –
CC#CCOc1ccc(S(=O)(=O)N2CCN(C(=O)OC)CC2C(=O)NO)cc1 (stereo not drawn) [Example 228, 4-(4-but-2-ynyloxy-Benzenesulfonyl)-3-hydroxycarbamoyl-piperazine-1-carboxylic Acid Methyl Ester] | 9 nM | 71 nM | – | 9.2 nM | –
CC1(C)SCCN(S(=O)(=O)c2ccc(OCC#CCN)cc2)C1C(=O)NO (stereo not drawn) [Example 265, 4-({4-[(4-Amino-2-butynyl)oxy]phenyl}sulfonyl)-N-hydroxy-2,2-dimethyl-3-thiomorpholine Carboxamide] | – | – | – | – | IC50 ([2]; Table 10): 8.7 nM; IC50 ([3]; Table 10): 97 nM; IC50 ([4]; Table 10): 7.5 nM
CC#CCOc1ccc(S(=O)(=O)N2CCN(Cc3ccccc3)CCC2C(=O)NO)cc1 (stereo not drawn) [Example 290, 1-Benzyl-4-{[4-(2-butynyloxy)phenyl]sulfonyl}-N-hydroxy-1,4-diazepane-5-carboxamide] | 83 nM | 25 nM | 287 nM | – | –
